These results are taken from patent publication US9340590B2 (priority 2011, dated 2016).

Assay in all cases: cell-based
The target in assay [1] is hNav1.5 (Homo sapiens, UniProt Q14524). The note with it: IonWorks Quattro, use-dependent block, hNav1.5; read-out: IWQ Use Nav1.5.
Assay [2] concerns the target hNav1.7 (Homo sapiens, UniProt Q15858). The assay is classed as cell-based. The note with it: IonWorks Quattro, use-dependent block, hNav1.7; read-out: IWQ Use Nav1.7. Background: In patch-clamp work, channel activity is measured electrically.
Assay [3] deals with hNav1.3 (Homo sapiens, UniProt Q9NY46). The note with it: IonWorks Quattro, use-dependent block, hNav1.3; read-out: IWQ Use Nav1.3.

Positions of bridges follow the written chain, without caps; N, C: chain ends. Residues, ends and D or L forms follow the SMILES beside them. A value given as a limit tells only on which side of the number the result lay.

hNav1.7, sequence (Q15858 whole entry, looked up): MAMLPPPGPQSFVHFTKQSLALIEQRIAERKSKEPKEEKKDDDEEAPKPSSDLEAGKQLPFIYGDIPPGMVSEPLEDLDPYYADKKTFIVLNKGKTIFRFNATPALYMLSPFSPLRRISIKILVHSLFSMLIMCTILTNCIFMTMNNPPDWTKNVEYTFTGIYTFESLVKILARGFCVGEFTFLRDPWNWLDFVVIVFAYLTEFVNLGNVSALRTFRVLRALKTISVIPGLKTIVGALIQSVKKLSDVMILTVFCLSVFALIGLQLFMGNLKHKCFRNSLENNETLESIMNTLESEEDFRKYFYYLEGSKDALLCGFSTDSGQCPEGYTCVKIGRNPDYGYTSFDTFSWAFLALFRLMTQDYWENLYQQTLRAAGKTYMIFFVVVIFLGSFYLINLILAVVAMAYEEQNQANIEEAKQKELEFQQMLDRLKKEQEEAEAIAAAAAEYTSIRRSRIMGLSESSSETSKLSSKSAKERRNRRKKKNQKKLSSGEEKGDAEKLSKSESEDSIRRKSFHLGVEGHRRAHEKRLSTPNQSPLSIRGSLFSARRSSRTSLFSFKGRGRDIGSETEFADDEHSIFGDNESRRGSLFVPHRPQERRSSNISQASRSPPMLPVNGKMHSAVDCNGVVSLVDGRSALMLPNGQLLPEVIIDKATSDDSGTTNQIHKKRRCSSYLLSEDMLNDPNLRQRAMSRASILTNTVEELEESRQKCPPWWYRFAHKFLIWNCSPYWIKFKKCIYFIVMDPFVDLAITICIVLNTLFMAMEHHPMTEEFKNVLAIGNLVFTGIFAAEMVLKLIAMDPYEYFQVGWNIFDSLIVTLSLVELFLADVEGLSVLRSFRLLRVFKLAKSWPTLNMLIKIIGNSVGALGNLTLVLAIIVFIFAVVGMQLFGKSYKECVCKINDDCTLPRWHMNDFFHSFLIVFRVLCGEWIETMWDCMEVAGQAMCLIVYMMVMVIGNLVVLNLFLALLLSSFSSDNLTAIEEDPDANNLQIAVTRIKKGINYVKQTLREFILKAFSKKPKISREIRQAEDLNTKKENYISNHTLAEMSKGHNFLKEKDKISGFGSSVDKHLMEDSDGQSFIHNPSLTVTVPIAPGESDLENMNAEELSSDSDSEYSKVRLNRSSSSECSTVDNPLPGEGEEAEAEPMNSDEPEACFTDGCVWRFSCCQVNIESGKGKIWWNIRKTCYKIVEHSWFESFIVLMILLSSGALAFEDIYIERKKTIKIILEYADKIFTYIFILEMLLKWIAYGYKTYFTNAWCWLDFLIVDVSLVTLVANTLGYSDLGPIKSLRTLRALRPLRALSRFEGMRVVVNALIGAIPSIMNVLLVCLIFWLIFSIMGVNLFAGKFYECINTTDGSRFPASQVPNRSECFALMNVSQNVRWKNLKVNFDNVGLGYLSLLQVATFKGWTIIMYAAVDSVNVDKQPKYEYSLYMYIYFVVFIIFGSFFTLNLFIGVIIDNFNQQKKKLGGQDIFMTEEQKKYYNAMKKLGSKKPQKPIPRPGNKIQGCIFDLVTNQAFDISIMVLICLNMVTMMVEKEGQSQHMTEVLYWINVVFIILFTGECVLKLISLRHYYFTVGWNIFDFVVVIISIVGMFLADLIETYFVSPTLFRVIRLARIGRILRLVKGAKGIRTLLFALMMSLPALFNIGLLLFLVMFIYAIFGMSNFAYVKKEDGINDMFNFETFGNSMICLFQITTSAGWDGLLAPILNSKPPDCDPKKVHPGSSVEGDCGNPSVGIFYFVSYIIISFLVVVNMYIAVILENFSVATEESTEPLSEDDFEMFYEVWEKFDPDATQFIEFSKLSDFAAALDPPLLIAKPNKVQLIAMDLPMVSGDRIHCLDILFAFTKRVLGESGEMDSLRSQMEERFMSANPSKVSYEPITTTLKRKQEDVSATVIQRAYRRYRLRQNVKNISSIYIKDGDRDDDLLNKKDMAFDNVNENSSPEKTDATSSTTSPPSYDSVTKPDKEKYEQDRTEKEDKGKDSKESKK
hNav1.5, sequence (Q14524 whole entry, looked up): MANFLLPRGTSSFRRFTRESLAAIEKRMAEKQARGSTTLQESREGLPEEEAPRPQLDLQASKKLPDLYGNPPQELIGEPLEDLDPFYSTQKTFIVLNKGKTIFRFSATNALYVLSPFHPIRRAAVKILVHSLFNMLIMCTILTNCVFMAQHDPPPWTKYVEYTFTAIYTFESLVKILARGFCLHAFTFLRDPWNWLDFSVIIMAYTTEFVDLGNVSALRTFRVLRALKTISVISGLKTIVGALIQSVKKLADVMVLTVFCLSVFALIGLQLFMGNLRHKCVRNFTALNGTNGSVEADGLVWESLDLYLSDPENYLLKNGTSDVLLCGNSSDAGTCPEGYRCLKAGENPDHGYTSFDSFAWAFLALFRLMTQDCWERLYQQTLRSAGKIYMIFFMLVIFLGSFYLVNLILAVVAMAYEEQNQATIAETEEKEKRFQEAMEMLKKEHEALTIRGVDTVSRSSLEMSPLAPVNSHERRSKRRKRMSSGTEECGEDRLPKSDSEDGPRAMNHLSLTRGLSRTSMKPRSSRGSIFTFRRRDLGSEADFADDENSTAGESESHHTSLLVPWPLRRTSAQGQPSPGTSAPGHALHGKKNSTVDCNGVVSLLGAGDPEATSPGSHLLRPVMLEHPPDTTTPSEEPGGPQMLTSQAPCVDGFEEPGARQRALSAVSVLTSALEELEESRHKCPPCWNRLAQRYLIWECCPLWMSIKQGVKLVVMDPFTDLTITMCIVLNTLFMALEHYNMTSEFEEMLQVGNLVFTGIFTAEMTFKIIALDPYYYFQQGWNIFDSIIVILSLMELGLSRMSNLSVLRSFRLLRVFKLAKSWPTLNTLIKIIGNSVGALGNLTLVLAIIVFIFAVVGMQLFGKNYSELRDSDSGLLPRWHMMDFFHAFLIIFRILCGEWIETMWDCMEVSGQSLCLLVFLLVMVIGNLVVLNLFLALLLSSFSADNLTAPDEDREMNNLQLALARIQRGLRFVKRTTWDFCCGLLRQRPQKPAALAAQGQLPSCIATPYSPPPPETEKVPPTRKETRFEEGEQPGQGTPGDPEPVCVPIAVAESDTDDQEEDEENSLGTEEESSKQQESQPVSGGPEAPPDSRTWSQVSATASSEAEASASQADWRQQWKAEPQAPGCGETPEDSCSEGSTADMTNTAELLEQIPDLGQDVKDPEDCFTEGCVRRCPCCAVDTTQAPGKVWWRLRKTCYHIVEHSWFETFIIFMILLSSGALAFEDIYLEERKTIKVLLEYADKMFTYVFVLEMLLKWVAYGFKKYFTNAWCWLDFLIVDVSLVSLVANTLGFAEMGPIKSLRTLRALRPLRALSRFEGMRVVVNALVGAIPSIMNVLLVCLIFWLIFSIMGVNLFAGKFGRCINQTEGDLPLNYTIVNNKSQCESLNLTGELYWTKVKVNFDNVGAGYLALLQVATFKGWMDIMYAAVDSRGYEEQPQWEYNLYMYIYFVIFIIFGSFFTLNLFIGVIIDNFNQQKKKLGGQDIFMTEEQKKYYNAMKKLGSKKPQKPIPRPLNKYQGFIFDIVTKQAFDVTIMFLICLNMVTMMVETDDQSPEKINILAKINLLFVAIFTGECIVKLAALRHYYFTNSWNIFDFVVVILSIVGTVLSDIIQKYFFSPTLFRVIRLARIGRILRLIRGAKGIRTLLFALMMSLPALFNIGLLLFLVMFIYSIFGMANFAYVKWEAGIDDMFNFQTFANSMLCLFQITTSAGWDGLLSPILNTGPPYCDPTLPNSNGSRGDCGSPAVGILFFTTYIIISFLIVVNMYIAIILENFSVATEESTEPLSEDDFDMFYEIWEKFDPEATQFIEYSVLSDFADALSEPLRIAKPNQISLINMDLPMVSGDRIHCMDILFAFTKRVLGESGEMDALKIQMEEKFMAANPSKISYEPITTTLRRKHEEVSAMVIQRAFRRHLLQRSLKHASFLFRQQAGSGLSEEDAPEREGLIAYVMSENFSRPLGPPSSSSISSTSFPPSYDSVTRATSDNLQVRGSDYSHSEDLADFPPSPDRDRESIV

With `CC[C@H](C)[C@@H]1NC(=O)[C@@H]2CSSC[C@@H]3NC(=O)[C@H](C(C)C)NC(=O)[C@H](CC(C)C)NC(=O)[C@H](CC(N)=O)NC(=O)[C@@H]4CCCN4C(=O)[C@H](CCCNC(=N)N)NC(=O)[C@H](CSSC[C@H](NC(=O)[C@@H](N)CC(=O)O)C(=O)N[C@@H](CC(C)C)C(=O)NCC(=O)N[C@@H](C)C(=O)N[C@@H](Cc4ccccc4)C(=O)N[C@@H](CCCNC(=N)N)C(=O)N[C@@H](CCCCN)C(=O)N2)NC(=O)[C@H](CSSC[C@@H](C(=O)N[C@@H](CCCCN)C(=O)N[C@@H](Cc2ccc(O)cc2)C(=O)N[C@H](C(=O)N[C@@H](Cc2ccccc2)C(=O)O)C(C)C)NC(=O)[C@H](Cc2c[nH]c4ccccc24)NC(=O)[C@H](C)NC(=O)[C@H](Cc2c[nH]cn2)NC(=O)[C@H]([C@@H](C)O)NC(=O)[C@H](CCCNC(=N)N)NC(=O)[C@H](CO)NC3=O)NC(=O)[C@H](CCCCN)NC(=O)[C@H](CC(=O)O)NC(=O)[C@H](CC(N)=O)NC(=O)[C@H](CC(=O)O)NC(=O)[C@@H]2CCCN2C1=O` [compound 824] (H-DCLGAFRKCIPDNDKCCRPNLVCSRTHAWCKYVF-OH; disulfide 2-17, 9-23, 16-30), the IC50 in assay [1], in assay [2] and in assay [3] was over 5 µM each time.

On to `CC[C@H](C)[C@@H]1NC(=O)[C@@H]2CSSC[C@@H]3NC(=O)[C@H](C(C)C)NC(=O)[C@H](CC(C)C)NC(=O)[C@H](CC(N)=O)NC(=O)[C@@H]4CCCN4C(=O)[C@H](CCCNC(=N)N)NC(=O)[C@H](CSSC[C@H](NC(=O)[C@@H](N)CC(=O)O)C(=O)N[C@@H](CC(C)C)C(=O)NCC(=O)N[C@@H](C)C(=O)N[C@@H](Cc4ccccc4)C(=O)N[C@@H](CCCNC(=N)N)C(=O)N[C@@H](CCCCN)C(=O)N2)NC(=O)[C@H](CSSC[C@@H](C(=O)N[C@@H](CCCCN)C(=O)N[C@@H](Cc2ccc(O)cc2)C(=O)N[C@H](C(=O)N[C@@H](Cc2ccccc2)C(=O)O)C(C)C)NC(=O)[C@H](Cc2c[nH]c4ccccc24)NC(=O)[C@H](CC(=O)O)NC(=O)[C@H](Cc2c[nH]cn2)NC(=O)[C@H]([C@@H](C)O)NC(=O)[C@H](CCCNC(=N)N)NC(=O)[C@H](CO)NC3=O)NC(=O)[C@H](CCCCN)NC(=O)[C@H](CC(=O)O)NC(=O)[C@H](CC(N)=O)NC(=O)[C@H](CC(=O)O)NC(=O)[C@@H]2CCCN2C1=O` [compound 825] (H-DCLGAFRKCIPDNDKCCRPNLVCSRTHDWCKYVF-OH; disulfide 2-17, 9-23, 16-30), for which the IC50 in assay [1], in assay [2] and in assay [3] was over 5 µM throughout.

As to `CC[C@H](C)[C@@H]1NC(=O)[C@@H]2CSSC[C@@H]3NC(=O)[C@H](C(C)C)NC(=O)[C@H](CC(C)C)NC(=O)[C@H](CC(N)=O)NC(=O)[C@@H]4CCCN4C(=O)[C@H](CCCNC(=N)N)NC(=O)[C@H](CSSC[C@H](NC(=O)[C@@H](N)CC(=O)O)C(=O)N[C@@H](CC(C)C)C(=O)NCC(=O)N[C@@H](C)C(=O)N[C@@H](Cc4ccccc4)C(=O)N[C@@H](CCCNC(=N)N)C(=O)N[C@@H](CCCCN)C(=O)N2)NC(=O)[C@H](CSSC[C@@H](C(=O)N[C@@H](CCCCN)C(=O)N[C@@H](Cc2ccc(O)cc2)C(=O)N[C@H](C(=O)N[C@@H](Cc2ccccc2)C(=O)O)C(C)C)NC(=O)[C@H](Cc2c[nH]c4ccccc24)NC(=O)[C@H](CCC(=O)O)NC(=O)[C@H](Cc2c[nH]cn2)NC(=O)[C@H]([C@@H](C)O)NC(=O)[C@H](CCCNC(=N)N)NC(=O)[C@H](CO)NC3=O)NC(=O)[C@H](CCCCN)NC(=O)[C@H](CC(=O)O)NC(=O)[C@H](CC(N)=O)NC(=O)[C@H](CC(=O)O)NC(=O)[C@@H]2CCCN2C1=O` [compound 826] (H-DCLGAFRKCIPDNDKCCRPNLVCSRTHEWCKYVF-OH; disulfide 2-17, 9-23, 16-30), the IC50 is over 5 µM in assay [1], over 5 µM in assay [2] and 1.8 µM in assay [3].

As to `CC[C@H](C)[C@@H]1NC(=O)[C@@H]2CSSC[C@@H]3NC(=O)[C@H](C(C)C)NC(=O)[C@H](CC(C)C)NC(=O)[C@H](CC(N)=O)NC(=O)[C@@H]4CCCN4C(=O)[C@H](CCCNC(=N)N)NC(=O)[C@H](CSSC[C@H](NC(=O)[C@@H](N)CC(=O)O)C(=O)N[C@@H](CC(C)C)C(=O)NCC(=O)N[C@@H](C)C(=O)N[C@@H](Cc4ccccc4)C(=O)N[C@@H](CCCNC(=N)N)C(=O)N[C@@H](CCCCN)C(=O)N2)NC(=O)[C@H](CSSC[C@@H](C(=O)N[C@@H](CCCCN)C(=O)N[C@@H](Cc2ccc(O)cc2)C(=O)N[C@H](C(=O)N[C@@H](Cc2ccccc2)C(=O)O)C(C)C)NC(=O)[C@H](Cc2c[nH]c4ccccc24)NC(=O)CNC(=O)[C@H](Cc2c[nH]cn2)NC(=O)[C@H]([C@@H](C)O)NC(=O)[C@H](CCCNC(=N)N)NC(=O)[C@H](CO)NC3=O)NC(=O)[C@H](CCCCN)NC(=O)[C@H](CC(=O)O)NC(=O)[C@H](CC(N)=O)NC(=O)[C@H](CC(=O)O)NC(=O)[C@@H]2CCCN2C1=O` [compound 827] (H-DCLGAFRKCIPDNDKCCRPNLVCSRTHGWCKYVF-OH; disulfide 2-17, 9-23, 16-30), the IC50 in assay [1], in assay [2] and in assay [3] was over 5 µM throughout.

For `CC[C@H](C)[C@@H]1NC(=O)[C@@H]2CSSC[C@@H]3NC(=O)[C@H](C(C)C)NC(=O)[C@H](CC(C)C)NC(=O)[C@H](CC(N)=O)NC(=O)[C@@H]4CCCN4C(=O)[C@H](CCCNC(=N)N)NC(=O)[C@H](CSSC[C@H](NC(=O)[C@@H](N)CC(=O)O)C(=O)N[C@@H](CC(C)C)C(=O)NCC(=O)N[C@@H](C)C(=O)N[C@@H](Cc4ccccc4)C(=O)N[C@@H](CCCNC(=N)N)C(=O)N[C@@H](CCCCN)C(=O)N2)NC(=O)[C@H](CSSC[C@@H](C(=O)N[C@@H](CCCCN)C(=O)N[C@@H](Cc2ccc(O)cc2)C(=O)N[C@H](C(=O)N[C@@H](Cc2ccccc2)C(=O)O)C(C)C)NC(=O)[C@H](Cc2c[nH]c4ccccc24)NC(=O)[C@H](Cc2c[nH]cn2)NC(=O)[C@H](Cc2c[nH]cn2)NC(=O)[C@H]([C@@H](C)O)NC(=O)[C@H](CCCNC(=N)N)NC(=O)[C@H](CO)NC3=O)NC(=O)[C@H](CCCCN)NC(=O)[C@H](CC(=O)O)NC(=O)[C@H](CC(N)=O)NC(=O)[C@H](CC(=O)O)NC(=O)[C@@H]2CCCN2C1=O` [compound 828] (H-DCLGAFRKCIPDNDKCCRPNLVCSRTHHWCKYVF-OH; disulfide 2-17, 9-23, 16-30), the IC50 in assay [1], in assay [2] and in assay [3] was over 5 µM in each case.

`CC[C@H](C)[C@@H]1NC(=O)[C@@H]2CSSC[C@@H]3NC(=O)[C@H](C(C)C)NC(=O)[C@H](CC(C)C)NC(=O)[C@H](CC(N)=O)NC(=O)[C@@H]4CCCN4C(=O)[C@H](CCCNC(=N)N)NC(=O)[C@H](CSSC[C@H](NC(=O)[C@@H](N)CC(=O)O)C(=O)N[C@@H](CC(C)C)C(=O)NCC(=O)N[C@@H](C)C(=O)N[C@@H](Cc4ccccc4)C(=O)N[C@@H](CCCNC(=N)N)C(=O)N[C@@H](CCCCN)C(=O)N2)NC(=O)[C@H](CSSC[C@@H](C(=O)N[C@@H](CCCCN)C(=O)N[C@@H](Cc2ccc(O)cc2)C(=O)N[C@H](C(=O)N[C@@H](Cc2ccccc2)C(=O)O)C(C)C)NC(=O)[C@H](Cc2c[nH]c4ccccc24)NC(=O)[C@H](CCCCN)NC(=O)[C@H](Cc2c[nH]cn2)NC(=O)[C@H]([C@@H](C)O)NC(=O)[C@H](CCCNC(=N)N)NC(=O)[C@H](CO)NC3=O)NC(=O)[C@H](CCCCN)NC(=O)[C@H](CC(=O)O)NC(=O)[C@H](CC(N)=O)NC(=O)[C@H](CC(=O)O)NC(=O)[C@@H]2CCCN2C1=O` [compound 829] (H-DCLGAFRKCIPDNDKCCRPNLVCSRTHKWCKYVF-OH; disulfide 2-17, 9-23, 16-30): the IC50 in assay [1] is over 5 µM; in assay [2], over 5 µM; in assay [3], 2.3 µM.

In the case of `CC[C@H](C)[C@@H]1NC(=O)[C@@H]2CSSC[C@@H]3NC(=O)[C@H](C(C)C)NC(=O)[C@H](CC(C)C)NC(=O)[C@H](CC(N)=O)NC(=O)[C@@H]4CCCN4C(=O)[C@H](CCCNC(=N)N)NC(=O)[C@H](CSSC[C@H](NC(=O)[C@@H](N)CC(=O)O)C(=O)N[C@@H](CC(C)C)C(=O)NCC(=O)N[C@@H](C)C(=O)N[C@@H](Cc4ccccc4)C(=O)N[C@@H](CCCNC(=N)N)C(=O)N[C@@H](CCCCN)C(=O)N2)NC(=O)[C@H](CSSC[C@@H](C(=O)N[C@@H](CCCCN)C(=O)N[C@@H](Cc2ccc(O)cc2)C(=O)N[C@H](C(=O)N[C@@H](Cc2ccccc2)C(=O)O)C(C)C)NC(=O)[C@H](Cc2c[nH]c4ccccc24)NC(=O)[C@H](CC(C)C)NC(=O)[C@H](Cc2c[nH]cn2)NC(=O)[C@H]([C@@H](C)O)NC(=O)[C@H](CCCNC(=N)N)NC(=O)[C@H](CO)NC3=O)NC(=O)[C@H](CCCCN)NC(=O)[C@H](CC(=O)O)NC(=O)[C@H](CC(N)=O)NC(=O)[C@H](CC(=O)O)NC(=O)[C@@H]2CCCN2C1=O` [compound 830] (H-DCLGAFRKCIPDNDKCCRPNLVCSRTHLWCKYVF-OH; disulfide 2-17, 9-23, 16-30), the IC50 in assay [1], in assay [2] and in assay [3] was over 5 µM throughout.

As to `CC[C@H](C)[C@@H]1NC(=O)[C@@H]2CSSC[C@@H]3NC(=O)[C@H](C(C)C)NC(=O)[C@H](CC(C)C)NC(=O)[C@H](CC(N)=O)NC(=O)[C@@H]4CCCN4C(=O)[C@H](CCCNC(=N)N)NC(=O)[C@H](CSSC[C@H](NC(=O)[C@@H](N)CC(=O)O)C(=O)N[C@@H](CC(C)C)C(=O)NCC(=O)N[C@@H](C)C(=O)N[C@@H](Cc4ccccc4)C(=O)N[C@@H](CCCNC(=N)N)C(=O)N[C@@H](CCCCN)C(=O)N2)NC(=O)[C@H](CSSC[C@@H](C(=O)N[C@@H](CCCCN)C(=O)N[C@@H](Cc2ccc(O)cc2)C(=O)N[C@H](C(=O)N[C@@H](Cc2ccccc2)C(=O)O)C(C)C)NC(=O)[C@H](Cc2c[nH]c4ccccc24)NC(=O)[C@H](CCSC)NC(=O)[C@H](Cc2c[nH]cn2)NC(=O)[C@H]([C@@H](C)O)NC(=O)[C@H](CCCNC(=N)N)NC(=O)[C@H](CO)NC3=O)NC(=O)[C@H](CCCCN)NC(=O)[C@H](CC(=O)O)NC(=O)[C@H](CC(N)=O)NC(=O)[C@H](CC(=O)O)NC(=O)[C@@H]2CCCN2C1=O` [compound 831] (H-DCLGAFRKCIPDNDKCCRPNLVCSRTHMWCKYVF-OH; disulfide 2-17, 9-23, 16-30), the IC50 is over 5 µM in assay [1], over 5 µM in assay [2] and 1.6 µM in assay [3].
